Data reported in patent US9409876B2, “Bradykinin receptor antagonists and pharmaceutical compositions containing them” (DOMPE' FARMACEUTICI S.P.A., priority 2013, dated 2016).
Where two headings read alike, the source gives them in different places.

How the values were obtained:
[1] = Pharmacokinetics after IV administration, brain penetration assessment; assay type: in vivo, rat; conditions: for concentration at 60 min / concentration at 240 min / concentration at 15 min: iv, 7.5 mg/kg
Protocol: In three of the rats tested in Example 56, indicated as R1, […], also the pharmacokinetic profile of compound 8 (R,R) was evaluated. The results are summarised in Tables III to IV and in FIGS. 1-4.
In tables III and V, T1/2 means the half-time of the compound, Tmax means the time at which the concentration of the compound reaches the maximum level, Cmax means the maximal concentration, Tlast means the latest time-point at which the concentration of the compound can be measured, Clast means the concentration at the latest time-point at which the concentration of the compound can be measured, AUClast means the area under the curve at the latest time-point at which the concentration of the compound can be measured, AUCinf_obs means the area under the curve which is infinitely extrapolated and MRTlast means the mean residence time at the latest time-point at which the concentration of the compound can be measured.
In tables IV and VI, LLOQ means lower limit of quantification.
Brain penetration was performed by IV administration at 7.5 mg/kg.

[2] = tested on: CCI-induced mechanical allodynia; test: Chronic constriction model of pain, mechanical allodynia; assay type: in vivo, rat
Protocol: An evaluation of the in vivo activity of compound 8 (R,R) was performed by testing the inhibition potential in mechanical allodynia using the chronic constriction model of pain.
Male Sprague-Dawley (SD) derived rats weighing 180±20 g (at arrival) were provided by BioLasco Taiwan (under Charles River Laboratories Technology Licensee). Space allocation for 5 animals per cage was 45×23×21 cm and maintained in a controlled temperature (20-24° C.) and humidity (50%-80%) environment with 12 hours light/dark cycles for at least three days in Ricerca Biosciences, LLC (Taipei, Taiwan) Laboratory prior to use. Free access to standard lab chow for rats [MF-18 (Oriental Yeast Co., Ltd., Japan)] and tap water was granted. All aspects of this work including housing, experimentation and disposal of animals were performed in general accordance with the Guide for the Care and Use of Laboratory Animals (National Academy Press, Washington, D. C., 2010).
Neuropathic pain behavior was induced by ligation of the sciatic nerve according to the method described by Bennett and Xie [Bennett G. J. and Xie Y. K. A peripheral mononeuropathy in rat that produces disorders of pain sensation like those seen in man, Pain, (1988) 33:87-107]. Briefly, rats were anaesthetized under pentobarbital (50 mg/kg, 5 mL/kg, IP) anesthesia and the sciatic nerve was exposed at mid-thigh level. […]
The rats had access to food and water up to the time of the experiment, and then were placed under inverted Plexiglas cages on a wire mesh rack and allowed to acclimate for 20 to 30 minutes. Allodynia was evaluated using the Chaplin “up/down” method using von Frey hairs [Chaplan, S. R, Bach, F. W., Pogrel, J. W., Chung, J. M. and Yaksh, T. L. Quantitative assessment of tactile allodynia in the rat paw. […]
The threshold of response of the treated rats was compared to respective vehicle treated rats; two-way ANOVA followed by Bonferroni's test was used for comparison between vehicle and treated groups. […] The delta change value at each time point was also calculated. […]

[3] = IV 7.5 mg/kg, Time 480, Average
[4] = Sprague-Dawley (SD), rat, IV 7.5 mg/kg, Brain
[5] = Sprague-Dawley (SD), rat, IV 7.5 mg/kg, Plasma
[6] = Sprague-Dawley, rat, IV 7.5 mg/kg, Brain

**Q.** For `COc1ccccc1CN(C(=O)CC(C)C)[C@@H](C(=O)NC[C@H]1CCCO1)c1ccc(C)cc1` [Compound 8 (R,R), 3-methyl-N-(2-methoxybenzyl)-N-{[(1R)-1-(4-methylphenyl)]-2-oxo-2-[(2R)-(tetrahydrofuran-2-ylmethyl)amino]ethyl}butanamide], which Tlast ([1]; IV 7.5 mg/kg, Brain) is on record?
**A.** The Tlast was 60 min.

**Q.** And the Tlast ([1]; IV 7.5 mg/kg, Plasma)?
**A.** The Tlast was 240 min.

**Q.** What about the Brain level ([1]; IV 7.5 mg/kg, Time 15, Average) of the same molecule?
**A.** The Brain level was 635.1 ng/g.

**Q.** What about the Brain level ([1]; IV 7.5 mg/kg, Time 15, R1) of the same molecule?
**A.** The Brain level was 619.3 ng/g.

**Q.** And the Brain level ([1]; IV 7.5 mg/kg, Time 15, R2)?
**A.** Its Brain level is 446.05 ng/g.

**Q.** And the Brain level ([1]; IV 7.5 mg/kg, Time 15, R3)?
**A.** Its Brain level is 839.85 ng/g.

**Q.** What about the Brain level ([1]; IV 7.5 mg/kg, Time 240, Average) of the same molecule?
**A.** Its Brain level is “<LLOQ”.

**Q.** And the Brain level ([1]; IV 7.5 mg/kg, Time 240, R1)?
**A.** The Brain level was “<LLOQ”.

**Q.** And the Brain level ([1]; IV 7.5 mg/kg, Time 240, R2)?
**A.** Its Brain level is “<LLOQ”.

**Q.** And the Brain level ([1]; IV 7.5 mg/kg, Time 240, R3)?
**A.** Its Brain level is “<LLOQ”.

**Q.** What about the Brain level [1, 3] of the same molecule?
**A.** Its Brain level is “<LLOQ”.

**Q.** What about the plasma level [1, 3] of the same molecule?
**A.** The plasma level was “<LLOQ”.

**Q.** And the Brain level ([1]; IV 7.5 mg/kg, Time 480, R1)?
**A.** The Brain level was “<LLOQ”.

**Q.** What about the plasma level ([1]; IV 7.5 mg/kg, Time 480, R1) of the same molecule?
**A.** The plasma level was “<LLOQ”.

**Q.** What about the Brain level ([1]; IV 7.5 mg/kg, Time 480, R2) of the same molecule?
**A.** Its Brain level is “<LLOQ”.

**Q.** And the plasma level ([1]; IV 7.5 mg/kg, Time 480, R2)?
**A.** The plasma level was “<LLOQ”.

**Q.** And the Brain level ([1]; IV 7.5 mg/kg, Time 480, R3)?
**A.** Its Brain level is “<LLOQ”.

**Q.** What about the plasma level ([1]; IV 7.5 mg/kg, Time 480, R3) of the same molecule?
**A.** The plasma level was “<LLOQ”.

**Q.** And the concentration at 60 min ([1]; Sprague-Dawley (SD), rat, brain, Brain, read-out: Clast)?
**A.** The concentration at 60 min was 0.0488 µg/mL.

**Q.** What about the concentration at 240 min ([1]; Sprague-Dawley (SD), rat, plasma, Plasma, read-out: Clast) of the same molecule?
**A.** The concentration at 240 min was 0.0042 µg/mL.

**Q.** What about the AUC(0-t) [1, 4] of the same molecule?
**A.** The AUC(0-t) was 0.523 µg·h/mL.

**Q.** And the MRT last [1, 4]?
**A.** Its MRT last is 11.2 min.

**Q.** What about the AUC(0-t) [1, 5] of the same molecule?
**A.** The AUC(0-t) was 1.2 µg·h/mL.

**Q.** What about the MRT last [1, 5] of the same molecule?
**A.** Its MRT last is 15.9 min.

**Q.** What about the Tmax [1, 5] of the same molecule?
**A.** The Tmax was 15 min.

**Q.** And the half-life ([1]; Sprague-Dawley (SD), rat, IV 7.5 mg/kg, Plasma, read-out: T½)?
**A.** Its half-life is 12.5 min.

**Q.** What about the concentration at 60 min ([1]; Sprague-Dawley, rat, brain, Time 60, Average, read-out: Brain level) of the same molecule?
**A.** Its concentration at 60 min is 48.8 ng/g.

**Q.** What about the concentration at 60 min ([1]; Sprague-Dawley, rat, brain, Time 60, R1, read-out: Brain level) of the same molecule?
**A.** The concentration at 60 min was 62.1 ng/g.

**Q.** What about the concentration at 60 min ([1]; Sprague-Dawley, rat, brain, Time 60, R2, read-out: Brain level) of the same molecule?
**A.** The concentration at 60 min was 34.6 ng/g.

**Q.** And the concentration at 60 min ([1]; Sprague-Dawley, rat, brain, Time 60, R3, read-out: Brain level)?
**A.** Its concentration at 60 min is 49.5 ng/g.

**Q.** And the Kp ([1]; Sprague-Dawley, rat, brain, IV 7.5 mg/kg, average on the AUC ratio)?
**A.** The Kp was ~0.43.

**Q.** What about the concentration at 15 min ([1]; Sprague-Dawley, rat, plasma, Time 15, Average, read-out: Plasma level) of the same molecule?
**A.** Its concentration at 15 min is 1.4 µg/mL.

**Q.** What about the concentration at 15 min ([1]; Sprague-Dawley, rat, plasma, Time 15, R1, read-out: Plasma level) of the same molecule?
**A.** The concentration at 15 min was 1.59 µg/mL.

**Q.** What about the concentration at 15 min ([1]; Sprague-Dawley, rat, plasma, Time 15, R2, read-out: Plasma level) of the same molecule?
**A.** Its concentration at 15 min is 1.14 µg/mL.

**Q.** What about the concentration at 15 min ([1]; Sprague-Dawley, rat, plasma, Time 15, R3, read-out: Plasma level) of the same molecule?
**A.** The concentration at 15 min was 1.47 µg/mL.

**Q.** And the concentration at 60 min ([1]; Sprague-Dawley, rat, plasma, Time 60, Average, read-out: Plasma level)?
**A.** The concentration at 60 min was 0.162 µg/mL.

**Q.** What about the concentration at 60 min ([1]; Sprague-Dawley, rat, plasma, Time 60, R1, read-out: Plasma level) of the same molecule?
**A.** The concentration at 60 min was 0.123 µg/mL.

**Q.** What about the concentration at 60 min ([1]; Sprague-Dawley, rat, plasma, Time 60, R2, read-out: Plasma level) of the same molecule?
**A.** Its concentration at 60 min is 0.157 µg/mL.

**Q.** And the concentration at 60 min ([1]; Sprague-Dawley, rat, plasma, Time 60, R3, read-out: Plasma level)?
**A.** Its concentration at 60 min is 0.205 µg/mL.

**Q.** What about the concentration at 240 min ([1]; Sprague-Dawley, rat, plasma, Time 240, Average, read-out: Plasma level) of the same molecule?
**A.** Its concentration at 240 min is 0.0042 µg/mL.

**Q.** What about the concentration at 240 min ([1]; Sprague-Dawley, rat, plasma, Time 240, R1, read-out: Plasma level) of the same molecule?
**A.** Its concentration at 240 min is 0.00405 µg/mL.

**Q.** And the concentration at 240 min ([1]; Sprague-Dawley, rat, plasma, Time 240, R2, read-out: Plasma level)?
**A.** The concentration at 240 min was 0.00335 µg/mL.

**Q.** What about the concentration at 240 min ([1]; Sprague-Dawley, rat, plasma, Time 240, R3, read-out: Plasma level) of the same molecule?
**A.** Its concentration at 240 min is 0.0052 µg/mL.

**Q.** What about the Cmax [1, 6] of the same molecule?
**A.** Its Cmax is 635 ng/g.

**Q.** And the Tmax [1, 6]?
**A.** Its Tmax is 15 min.

**Q.** What about the Cmax ([1]; Sprague-Dawley, rat, IV 7.5 mg/kg, Plasma) of the same molecule?
**A.** Its Cmax is 1.4 µg/mL.

**Q.** And the “significant reversal of CCI-induced mechanical allodynia” value ([2]; 30 mg/kg IV, 2 and 3 hours post-dose)?
**A.** The value was “not at 2 and 3 hours post-dose”.

**Q.** And the “inhibition of CCI-induced mechanical allodynia” value ([2]; 30 mg/kg IV, 1 hour post-dose)?
**A.** Its value is 37%.

**Q.** And the “inhibitory activity on allodynia” value ([2]; chronic constriction model of pain)?
**A.** The value was “strong inhibitory activity on allodynia”.
